Active and inactive are the calls of the source. No cut-off for these calls is given here.

Experiment [1] concerns the target T1, Peroxisome proliferator-activated receptor delta (Homo sapiens) (UniProt Q03181).
T1 sequence (whole entry): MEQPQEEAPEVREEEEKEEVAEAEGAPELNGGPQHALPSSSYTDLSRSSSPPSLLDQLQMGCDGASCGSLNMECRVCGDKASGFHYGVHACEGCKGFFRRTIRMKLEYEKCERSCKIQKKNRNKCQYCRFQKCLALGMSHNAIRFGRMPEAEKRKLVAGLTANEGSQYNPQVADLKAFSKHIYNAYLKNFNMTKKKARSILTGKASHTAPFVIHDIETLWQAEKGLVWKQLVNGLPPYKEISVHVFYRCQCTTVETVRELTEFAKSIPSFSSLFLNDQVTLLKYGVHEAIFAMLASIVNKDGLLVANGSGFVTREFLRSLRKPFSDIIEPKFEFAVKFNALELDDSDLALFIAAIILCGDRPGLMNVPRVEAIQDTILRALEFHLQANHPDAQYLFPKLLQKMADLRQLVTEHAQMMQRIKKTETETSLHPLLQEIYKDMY
Description: Binding affinity to PPARdelta (unknown origin) upto 10 uM by TR-FRET-based competitive binding assay.

The target of experiment [2] is T2, Peroxisome proliferator-activated receptor alpha (Homo sapiens) (UniProt Q07869).
T2 sequence (whole entry): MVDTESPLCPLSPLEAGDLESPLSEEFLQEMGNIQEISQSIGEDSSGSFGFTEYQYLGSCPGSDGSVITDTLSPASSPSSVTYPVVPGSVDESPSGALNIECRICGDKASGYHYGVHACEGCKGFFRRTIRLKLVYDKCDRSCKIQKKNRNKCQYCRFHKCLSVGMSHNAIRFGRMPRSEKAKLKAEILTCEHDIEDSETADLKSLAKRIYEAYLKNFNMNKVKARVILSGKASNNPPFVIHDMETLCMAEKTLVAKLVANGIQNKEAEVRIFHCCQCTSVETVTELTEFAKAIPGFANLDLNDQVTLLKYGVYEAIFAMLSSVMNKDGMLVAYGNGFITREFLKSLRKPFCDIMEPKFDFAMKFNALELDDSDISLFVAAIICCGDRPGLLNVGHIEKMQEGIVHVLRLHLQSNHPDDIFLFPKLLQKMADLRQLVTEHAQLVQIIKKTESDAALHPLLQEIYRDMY
Nature of the experiment: Binding affinity to PPARalpha (unknown origin) upto 10 uM by TR-FRET-based competitive binding assay.

For experiment [3], the system named is Mesenchymal stem cells. Description: Induction of adiponectin secretion in human BMMSC cells at 10 uM in presence of IDX induction medium by ELISA assay. It counts as functional, cell-based.
Experiment [4] can be described thus: Induction of adiponectin secretion in human BMMSC cells in presence of IDX induction medium by ELISA assay. The note with it: Mesenchymal stem cells. It counts as functional, cell-based.
The target in experiment [5] is T3, Peroxisome proliferator-activated receptor gamma (Homo sapiens, UniProt P37231).
T3 sequence (P37231 whole entry): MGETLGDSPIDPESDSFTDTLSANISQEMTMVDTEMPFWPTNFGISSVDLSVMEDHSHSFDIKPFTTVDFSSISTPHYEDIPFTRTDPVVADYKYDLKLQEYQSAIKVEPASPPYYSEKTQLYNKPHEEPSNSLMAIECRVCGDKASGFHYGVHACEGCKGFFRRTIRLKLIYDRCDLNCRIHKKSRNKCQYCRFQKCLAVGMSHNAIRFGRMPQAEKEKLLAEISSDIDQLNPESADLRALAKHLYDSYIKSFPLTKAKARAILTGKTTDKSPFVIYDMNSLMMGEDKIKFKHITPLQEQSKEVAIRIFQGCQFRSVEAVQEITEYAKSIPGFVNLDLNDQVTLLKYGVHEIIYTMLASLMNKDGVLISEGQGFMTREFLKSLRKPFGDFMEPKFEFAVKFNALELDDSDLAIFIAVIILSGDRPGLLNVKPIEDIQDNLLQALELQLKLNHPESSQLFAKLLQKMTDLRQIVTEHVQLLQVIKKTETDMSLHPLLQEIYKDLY
Description: Partial agonist activity at PPARgamma (unknown origin) by TR-FRET-based competitive binding assay.

Experiment [6] can be described thus: Induction of adiponectin secretion in human BMMSC cells assessed as fold increase in adiponectin level at 10 uM in presence of IDX induction medium by ELISA assay. It counts as functional, Mesenchymal stem cells.
Experiment [7] has as its target T3, Peroxisome proliferator-activated receptor gamma. Nature of the experiment: Binding affinity to PPARgamma (unknown origin) by TR-FRET-based competitive binding assay.
Experiment [8] has as its system Mesenchymal stem cells. Nature of the experiment: Upregulation of PPARgamma mRNA expression in human BMMSC cells at 10 uM in presence of IDX induction medium by qRT-PCR assay. It counts as functional, cell-based.
The test system of experiment [9] is Mesenchymal stem cells. Description: Induction of adiponectin secretion in human BMMSC cells assessed as increase in number of lipid droplets at 10 uM in presence of IDX induction medium by Oil Red O staining based inverted microscopic analysis. It counts as functional, cell-based.
The test system of experiment [10] is Mesenchymal stem cells. Description: Potency index, ratio of EC50 for chrysin to EC50 for test compound for induction of adiponectin secretion in human BMMSC cells. The format is functional.
Experiment [11] relates to Mesenchymal stem cells. Nature of the experiment: Induction of adiponectin secretion in human BMMSC cells assessed as increase in size of lipid droplets at 10 uM in presence of IDX induction medium by Oil Red O staining based inverted microscopic analysis. The format is functional, cell-based.
For experiment [12], the system named is Mesenchymal stem cells. Nature of the experiment: Upregulation of FABP4 mRNA expression in human BMMSC cells at 10 uM in presence of IDX induction medium by qRT-PCR assay. The format is functional, cell-based.
Experiment [13] has as its system Mesenchymal stem cells. Nature of the experiment: Upregulation of ADIPOQ mRNA expression in human BMMSC cells at 10 uM in presence of IDX induction medium by qRT-PCR assay. The format is functional, cell-based.
The target in experiment [14] is T3, Peroxisome proliferator-activated receptor gamma. Description: Agonist activity at PPARgamma LBD (unknown origin) assessed as increase in recruitment of coactivator RAP250 to PPARgamma LBD by TR-FRET-based nuclear receptor coactivator assay.

`O=c1cc(-c2ccccc2)oc2cc(O)cc(OCc3ccc(Cl)cc3)c12`: the outcome in experiment [1] and in experiment [2] was inactive. Besides, in [3], the result was Active.

Regarding `CCCc1nc2c(C)cc(-c3nc4ccccc4n3C)cc2n1Cc1ccc(-c2ccccc2C(=O)O)cc1`, in experiment [4], the EC50 turned out to be 4.7 µM. The Ki in experiment [5] was 1.08 µM.

In the case of `CCc1ccc(CCOc2ccc(CC3SC(=O)NC3=O)cc2)nc1` (centres undefined) [PIOGLITAZONE], the EC50 in experiment [4] worked out at 0.5 µM.

In the case of `O=c1cc(-c2ccccc2)oc2cc(OCc3ccccc3)cc(OCc3ccccc3)c12`, the outcome in experiment [1] and in experiment [2] was inactive. For the same compound, the result in experiment [3] was Active.

As to `COc1cc(OCc2ccccc2)cc2oc(-c3ccccc3)cc(=O)c12`, the result in experiment [1] and in experiment [2] was inactive.

Consider `CC(C)=CCOc1cc(OCc2ccccc2)cc2oc(-c3ccccc3)cc(=O)c12`, for which the outcome in experiment [1] and in [2] was inactive. In addition, the result in experiment [3] was Active. The “fold change (FC)” value in experiment [6] is 3.3.

Take `O=c1cc(-c2ccccc2)oc2cc(OCc3ccccc3)cc(O)c12`: the result in [1] and in experiment [2] was inactive. Moreover, the outcome in experiment [3] was Active.

With `C=CCOc1cc(O)cc2oc(-c3ccccc3)cc(=O)c12`, the result in [1] and in [2] was inactive. Also, the outcome in experiment [3] was Active.

As for `CC(C)=CCOc1cc(OCC=C(C)C)c2c(=O)cc(-c3ccccc3)oc2c1`, the result in [1] and in experiment [2] was inactive. The affinity in [7], expressed as Ki, was 0.37 µM. In experiment [4], the EC50 worked out at 4 µM. The outcome in experiment [8], in [9], in experiment [3], in experiment [11], in experiment [12] and in [13] was Active. Moreover, the “Ratio EC50” value in [10] was 9. Further, the “fold change (FC)” value in [6] was 4.8.

In the case of `O=c1cc(-c2ccccc2)oc2cc(O)cc(O)c12` [CHRYSIN], the outcome in [1] and in experiment [2] was inactive. Besides, the EC50 in experiment [4] was found to be 77.7 µM. For the same compound, the outcome in [9], in experiment [3] and in experiment [11] was Active. Also, the “fold change (FC)” value in experiment [6] is on record as 2.3.

Take `O=c1cc(-c2ccccc2)oc2cc(O)cc(OCc3ccc(F)cc3)c12`: the result in [1] and in [2] was inactive. For the same compound, in [3], the result was Active.

With `O=c1cc(-c2ccccc2)oc2cc(O)cc(OCc3ccccc3)c12`, the result in experiment [1] and in experiment [2] was inactive. The outcome in experiment [3] was Active.

For `CC(C)=CCOc1cc(OCc2ccccc2)c2c(=O)cc(-c3ccccc3)oc2c1`, the outcome in [1] and in experiment [2] was inactive. The compound also returned a Ki in experiment [7] of 0.55 µM. The results for the half-maximal effective concentration (EC50) in experiment [4] and in experiment [14] were 8.5 µM and 19.6 µM, respectively. In addition, the result in experiment [8], in experiment [9], in experiment [3], in [11], in experiment [12] and in [13] was Active. Further, the “Ratio EC50” value in experiment [10] is recorded as 9. Further, in [6], the “fold change (FC)” value was determined as 3.8.

Source of the values: ChEMBL document CHEMBL5252661 (ACS Med Chem Lett, 2023).
